Data set [1] has as its system FXN messenger RNA. As to conditions: cited from earlier work; for effects on FXN messenger RNA levels: Friedreich ataxia cells.
A further data set concerns YG8R mouse. Particulars: cited from earlier work.
The conditions of data set [2]: pH = 2 and 50 °C; cited from earlier work.
The test system of data set [3] is global acetylation of histone H3. As to conditions: Friedreich ataxia lymphoblast cell line; cited from earlier work.
The test system of data set [4] is KIKI (FXN 230GAA/230GAA) mouse. As to conditions: KIKI mice; cited from earlier work.
The test system of another data set is frataxin protein. As to conditions: Friedreich ataxia lymphoblast cell line; cited from earlier work.
For data set [5], the system named is class I histone deacetylase enzymes. Particulars: 106: histone deacetylase enzymes 1 and 3; cited from earlier work.
The next data set concerns HDAC3. As to conditions: recombinant enzymes; cited from earlier work.
Data set [6] deals with FXN messenger RNA. Briefly: FXN messenger RNA by qRT-PCR in Friedreich ataxia lymphoid cells. Format: cell-based, human. Particulars: 10 μM compound, qRT-PCR of FXN messenger RNA. (Real-time PCR tracks product formation cycle by cycle.)
Data set [7] concerns histone deacetylase enzyme 2. Particulars: relative to histone deacetylase enzymes 1 and 3; cited from earlier work.
Data set [8] concerns FXN messenger RNA. Briefly: FXN messenger RNA by qRT-PCR in peripheral blood mononuclear cells. As to conditions: 10 μM, 48 hours. Format: cell-based, human.
The next data set concerns class II HDACs. As to conditions: panel of recombinant human enzymes expressed in baculovirus; cited from earlier work.
Data set [9] relates to histone deacetylase enzyme 8. As to conditions: relative to histone deacetylase enzymes 1 and 3; cited from earlier work.
Data set [10] deals with histones H3 and H4 within intron 1 of FXN. Particulars: chromatin immunoprecipitation; cited from earlier work.

Turning to `Nc1ccccc1NC(=O)CCCCCCC(=O)Nc1ccccc1` [BML-210], in the data set on FXN messenger RNA [1], the “repression of FXN in lymphoid cell lines derived from patients with Friedreich ataxia” value is “relieve repression”.
Turning to `Cc1ccc(C(=O)NCCCCCC(=O)Nc2ccccc2N)cc1` [compound 109], the “toxicity during 5 months of treatment” value in the data set on YG8R mouse is “no overt toxicity”. Moreover, the “t1/2 in acidic conditions” value in data set [2] was 6 h.
On to `Cc1ccc(NC(=O)CCCCCC(=O)Nc2ccccc2N)cc1` [compound 106], for which, in [3], the “acetylated histones after washing cells free of the compounds” value is listed as “persists for several hours”. Also, in data set [4], the “frataxin levels in the nervous system and heart” value was “restored”; the “histone H3 and H4 acetylation in chromatin near the GAA•TTC repeat” value is “increased”. In addition, the “induction of frataxin protein” value in the data set on frataxin protein is given as “potent inducer”. The mechanism of inhibition result in data set [5] is listed as “slow-on/slow-off”. For the same molecule, the “preference for histone deacetylase enzyme 3 over histone deacetylase enzyme 1” value with HDAC3 is given as around 10 fold. In addition, the FXN transcription result in the data set with FXN messenger RNA [6] is on record as “Highly active”. In data set [7], the “activity against histone deacetylase enzyme 2” value is listed as “much lower activity”. Also, the “FXN messenger RNA, cells from patients with Friedreich ataxia” value with FXN messenger RNA [8] (peripheral blood mononuclear cells from affected individuals) is “significant increases”. Further, the “FXN messenger RNA, wild-type alleles in cells from unaffected individuals” value with FXN messenger RNA [8] (peripheral blood mononuclear cells from unaffected individuals) is listed as “only a very small effect”. For the same molecule, the “activity against class II histone deacetylases” value in the data set on class II HDACs is “little or no activity”. Besides, in data set [9], the “activity against histone deacetylase enzyme 8” value is given as “much lower activity”. Also, in the data set on YG8R mouse, the “global histone H3 and H4 acetylation of brain tissue” value is recorded as “increased”; the “toxicity during 5 months of treatment” value is “no overt toxicity”. The motor coordination entry in the data set with YG8R mouse (long-term treatment) was “improvement”.
Turning to `CC(/C=C/C(=O)NO)=C\[C@@H](C)C(=O)c1ccc(N(C)C)cc1` [trichostatin A], the “effects on FXN messenger RNA levels” value in the data set on FXN messenger RNA [1] is given as “no effects”. In addition, in data set [5], the mechanism of inhibition entry is “rapid-on/rapid-off, classical competitive inhibitors”. Moreover, in data set [10], the “histone acetylation on FXN (H3-K14, H4-K5, H4-K12 within intron 1)” value (“histone acetylation on FXN” below) is on record as “no effect”.
Regarding `Nc1ccccc1NC(=O)CCCCCC(=O)Nc1ccccc1` [4b], the “histone acetylation on FXN” value in [10] is given as “increases acetylation”.
Consider `O=C(CCCCCCC(=O)Nc1ccccc1)NO` [suberoylanilide hydroxamic acid], for which the “effects on FXN messenger RNA levels” value with FXN messenger RNA [1] is “no effects”. For the same molecule, in the data set with FXN messenger RNA [1] (at subcytotoxic concentrations), the “activator of FXN transcription in Friedreich ataxia cells” value was “inactive”. The “acetylated histones after washing cells free of the compounds” value in [3] is on record as “rapidly lost”. In addition, the “induction of frataxin protein” value in the data set on frataxin protein is “no such activity”. Moreover, in data set [10], the “histone acetylation on FXN” value is reported as “no effect”.

The record behind these values is PMC3743553 (Journal of child neurology, 2012).
